Measurements taken from PubChem BioAssay (NCI).
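Each compound was tested at five concentrations against cells in 96-well plates for 48 hours. Definition used: TGI = concentration required for complete inhibition of growth.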

What was measured:
Assay in all cases: NCI anticancer screen, dose series, 48 h
NCI-H23 lung = tested on: NCI-H23 lung
SK-OV-3 ovarian = tested on: SK-OV-3 ovarian
HOP-62 NSCLC = tested on: HOP-62 NSCLC
HOP-92 NSCLC = tested on: HOP-92 NSCLC
HCT-15 colon = tested on: HCT-15 colon
SK-MEL-5 melanoma = tested on: SK-MEL-5 melanoma
K-562 leukemia = tested on: K-562 leukemia
SW-620 colon = tested on: SW-620 colon
COLO 205 colon = tested on: COLO 205 colon
OVCAR-5 ovarian = tested on: OVCAR-5 ovarian
A549 NSCLC = tested on: A549 NSCLC
KM12 colon = tested on: KM12 colon
HCC-2998 colon = tested on: HCC-2998 colon
U251 CNS = tested on: U251 CNS
HT29 colon = tested on: HT29 colon
IGROV1 ovarian = tested on: IGROV1 ovarian
SF-295 CNS = tested on: SF-295 CNS
RPMI-8226 leukemia = tested on: RPMI-8226 leukemia
UACC-62 melanoma = tested on: UACC-62 melanoma
LOX IMVI melanoma = tested on: LOX IMVI melanoma
M19-MEL melanoma = tested on: M19-MEL melanoma
OVCAR-4 ovarian = tested on: OVCAR-4 ovarian
M14 melanoma = tested on: M14 melanoma
OVCAR-3 ovarian = tested on: OVCAR-3 ovarian
KM20L2 colon = tested on: KM20L2 colon
OVCAR-8 ovarian = tested on: OVCAR-8 ovarian
ACHN renal = tested on: ACHN renal
XF 498 CNS = tested on: XF 498 CNS
RXF-631 renal = tested on: RXF-631 renal
A498 renal = tested on: A498 renal
UO-31 renal = tested on: UO-31 renal
SNB-19 CNS = tested on: SNB-19 CNS
CCRF-CEM leukemia = tested on: CCRF-CEM leukemia
HCT-116 colon = tested on: HCT-116 colon
SF-268 CNS = tested on: SF-268 CNS
786-0 renal = tested on: 786-0 renal
NCI-H460 lung = tested on: NCI-H460 lung
DMS 273 small cell lung = tested on: DMS 273 small cell lung
SK-MEL-28 melanoma = tested on: SK-MEL-28 melanoma
HL-60(TB) leukemia = tested on: HL-60(TB) leukemia
EKVX NSCLC = tested on: EKVX NSCLC
MOLT-4 leukemia = tested on: MOLT-4 leukemia
TK-10 renal = tested on: TK-10 renal
CAKI-1 renal = tested on: CAKI-1 renal
SN12C renal = tested on: SN12C renal
SNB-75 CNS = tested on: SNB-75 CNS
MALME-3M melanoma = tested on: MALME-3M melanoma
LXFL 529 NSCLC = tested on: LXFL 529 NSCLC
RXF 393 renal = tested on: RXF 393 renal
NCI-H522 lung = tested on: NCI-H522 lung
SNB-78 CNS = tested on: SNB-78 CNS
DLD-1 colon = tested on: DLD-1 colon
SF-539 CNS = tested on: SF-539 CNS
DMS 114 small cell lung = tested on: DMS 114 small cell lung
NCI-H226 lung = tested on: NCI-H226 lung
SR leukemia = tested on: SR leukemia
UACC-257 melanoma = tested on: UACC-257 melanoma

Question: Which results are given for `COC(=O)C1=Cc2c(OC)cc(OC)c(OC)c2[C@H](c2cc(OC)c(OC)cc2OC)C1C(=O)OC` (stereo partly drawn)?
Answer: TGI (NCI-H23 lung): > 100 µM; TGI (SK-OV-3 ovarian): > 100 µM; TGI (HOP-62 NSCLC): > 100 µM; TGI (HOP-92 NSCLC): > 100 µM; TGI (HCT-15 colon): > 100 µM; TGI (SK-MEL-5 melanoma): > 100 µM; TGI (K-562 leukemia): 46.9 µM; TGI (SW-620 colon): > 100 µM; TGI (COLO 205 colon): > 100 µM; TGI (OVCAR-5 ovarian): > 100 µM; TGI (A549 NSCLC): > 100 µM; TGI (KM12 colon): > 100 µM; TGI (HCC-2998 colon): > 100 µM; TGI (U251 CNS): > 100 µM; TGI (HT29 colon): > 100 µM; TGI (IGROV1 ovarian): > 100 µM; TGI (SF-295 CNS): > 100 µM; TGI (RPMI-8226 leukemia): > 100 µM; TGI (UACC-62 melanoma): > 100 µM; TGI (LOX IMVI melanoma): > 100 µM; TGI (M19-MEL melanoma): > 100 µM; TGI (OVCAR-4 ovarian): > 100 µM; TGI (M14 melanoma): > 100 µM; TGI (OVCAR-3 ovarian): > 100 µM; TGI (KM20L2 colon): > 100 µM; TGI (OVCAR-8 ovarian): > 100 µM; TGI (ACHN renal): > 100 µM; TGI (XF 498 CNS): > 100 µM; TGI (RXF-631 renal): > 100 µM; TGI (A498 renal): > 100 µM; TGI (UO-31 renal): > 100 µM; TGI (SNB-19 CNS): > 100 µM; TGI (CCRF-CEM leukemia): > 100 µM; TGI (HCT-116 colon): > 100 µM; TGI (SF-268 CNS): > 100 µM; TGI (786-0 renal): > 100 µM; TGI (NCI-H460 lung): > 100 µM; TGI (DMS 273 small cell lung): > 100 µM; TGI (SK-MEL-28 melanoma): > 100 µM; TGI (HL-60(TB) leukemia): > 100 µM; TGI (EKVX NSCLC): > 100 µM; TGI (MOLT-4 leukemia): > 100 µM; TGI (TK-10 renal): > 100 µM; TGI (CAKI-1 renal): > 100 µM; TGI (SN12C renal): > 100 µM; TGI (SNB-75 CNS): > 100 µM; TGI (MALME-3M melanoma): > 100 µM; TGI (LXFL 529 NSCLC): > 100 µM; TGI (RXF 393 renal): > 100 µM; TGI (NCI-H522 lung): > 100 µM; TGI (SNB-78 CNS): > 100 µM; TGI (DLD-1 colon): > 100 µM; TGI (SF-539 CNS): > 100 µM; TGI (DMS 114 small cell lung): > 100 µM; TGI (NCI-H226 lung): > 100 µM

Question: With `CCCCCC(=O)Cc1cc(OC)cc2c1C(=O)Oc1cc(O)c(C(=O)O)c(CC(=O)CCCCC)c1O2` as the compound, how does the TGI (NCI-H23 lung) read?
Answer: Its TGI is 37.1 µM.

Question: And the TGI (SK-OV-3 ovarian)?
Answer: Its TGI is over 100 µM.

Question: And the TGI (HOP-62 NSCLC)?
Answer: Its TGI is over 100 µM.

Question: What about the TGI (SK-MEL-5 melanoma) of the same compound?
Answer: Its TGI is over 100 µM.

Question: What about the TGI (K-562 leukemia) of the same compound?
Answer: Its TGI is over 100 µM.

Question: What about the TGI (SW-620 colon) of the same compound?
Answer: Its TGI is over 100 µM.

Question: What about the TGI (COLO 205 colon) of the same compound?
Answer: Its TGI is over 100 µM.

Question: What about the TGI (OVCAR-5 ovarian) of the same compound?
Answer: Its TGI is over 100 µM.

Question: What about the TGI (A549 NSCLC) of the same compound?
Answer: The TGI was over 100 µM.

Question: What about the TGI (KM12 colon) of the same compound?
Answer: Its TGI is over 100 µM.

Question: And the TGI (HCC-2998 colon)?
Answer: The TGI was over 100 µM.

Question: What about the TGI (U251 CNS) of the same compound?
Answer: Its TGI is 29.3 µM.

Question: What about the TGI (HT29 colon) of the same compound?
Answer: The TGI was over 100 µM.

Question: And the TGI (IGROV1 ovarian)?
Answer: The TGI was over 100 µM.

Question: And the TGI (SF-295 CNS)?
Answer: Its TGI is over 100 µM.

Question: What about the TGI (RPMI-8226 leukemia) of the same compound?
Answer: Its TGI is over 100 µM.

Question: What about the TGI (UACC-62 melanoma) of the same compound?
Answer: The TGI was 49.6 µM.

Question: What about the TGI (LOX IMVI melanoma) of the same compound?
Answer: Its TGI is over 100 µM.

Question: What about the TGI (M19-MEL melanoma) of the same compound?
Answer: The TGI was 69.6 µM.

Question: And the TGI (M14 melanoma)?
Answer: The TGI was over 100 µM.

Question: And the TGI (OVCAR-3 ovarian)?
Answer: Its TGI is 43.8 µM.

Question: And the TGI (KM20L2 colon)?
Answer: The TGI was over 100 µM.

Question: What about the TGI (OVCAR-8 ovarian) of the same compound?
Answer: Its TGI is over 100 µM.

Question: And the TGI (ACHN renal)?
Answer: The TGI was over 100 µM.

Question: What about the TGI (XF 498 CNS) of the same compound?
Answer: Its TGI is over 100 µM.

Question: And the TGI (RXF-631 renal)?
Answer: Its TGI is over 100 µM.

Question: What about the TGI (A498 renal) of the same compound?
Answer: The TGI was over 100 µM.

Question: What about the TGI (CCRF-CEM leukemia) of the same compound?
Answer: The TGI was over 100 µM.

Question: What about the TGI (HCT-116 colon) of the same compound?
Answer: The TGI was 71.2 µM.

Question: And the TGI (SF-268 CNS)?
Answer: The TGI was over 100 µM.

Question: And the TGI (786-0 renal)?
Answer: Its TGI is 37.7 µM.

Question: And the TGI (NCI-H460 lung)?
Answer: Its TGI is over 100 µM.

Question: What about the TGI (DMS 273 small cell lung) of the same compound?
Answer: The TGI was over 100 µM.

Question: And the TGI (HL-60(TB) leukemia)?
Answer: The TGI was over 100 µM.

Question: And the TGI (EKVX NSCLC)?
Answer: The TGI was over 100 µM.

Question: And the TGI (MOLT-4 leukemia)?
Answer: Its TGI is over 100 µM.

Question: And the TGI (TK-10 renal)?
Answer: Its TGI is over 100 µM.

Question: What about the TGI (CAKI-1 renal) of the same compound?
Answer: The TGI was over 100 µM.

Question: And the TGI (SNB-75 CNS)?
Answer: Its TGI is over 100 µM.

Question: And the TGI (MALME-3M melanoma)?
Answer: The TGI was over 100 µM.

Question: What about the TGI (SR leukemia) of the same compound?
Answer: Its TGI is over 100 µM.

Question: What about the TGI (LXFL 529 NSCLC) of the same compound?
Answer: The TGI was over 100 µM.

Question: What about the TGI (NCI-H522 lung) of the same compound?
Answer: Its TGI is over 100 µM.

Question: What about the TGI (SNB-78 CNS) of the same compound?
Answer: Its TGI is over 100 µM.

Question: And the TGI (DLD-1 colon)?
Answer: The TGI was over 100 µM.

Question: And the TGI (DMS 114 small cell lung)?
Answer: Its TGI is over 100 µM.

Question: And the TGI (UACC-257 melanoma)?
Answer: Its TGI is over 100 µM.

Question: And the TGI (NCI-H226 lung)?
Answer: Its TGI is over 100 µM.
